Source: patent US20100297020A1, “PHOSPHORYLATED AND PHOSPHONATED PYRONE ANALOGS FOR THERAPEUTIC TREATMENT” (Limerick Biopharma, Inc., priority 2008, published 2010)

What was measured:
[1] = tested on: BB19 cells, human BCECs (brain capillary endothelial cells); assay: Tacrolimus uptake assay; format: cell-based; conditions: Endothelial cell, 1 h, 0.1 μM test compound, 1 hour incubation, 3H-tacrolimus 34 nM, read-out: cell associated ^3H-tacrolimus uptake, % of control
Protocol: (§1) BB19 cells, human BCECs (brain capillary endothelial cells) immortalized with the E6E7 genes of human papilloma virus, were kindly provided from Jacques G. Prudhomme, Department of Biology, University of California, Riverside, U.S.A. The cells were cultured as monolayer culture in Amniomax™-C100 basal medium (catalog number 17001-157) with Amniomax™-C100 supplement (catalog number 12556-049) (Invitrogen, Basel, CH).
(§2) Cells were seeded onto culture surfaces precoated with 10 μg/cm^2 rat tail collagen type I (BD Bioscience, Allschwil, CH) at a density of approximately 50′000 cells/cm^2 and were cultured in an incubator at 37° C. with 5% CO2, 95% fresh air and saturated humidity. For uptake assays, cells were seeded on precoated 96-well plates. Assays were performed at confluency, after 6 days in culture.
(§3) BB19 cells were seeded 50′000 cells/cm^2 on 96-well plates (Falcon) and incubated under condition described above for 6 days. Before starting the assay, cells were washed 2 times with pre-warmed Dulbecco's MEM with Glutamax-I (catalog number 61965) (Invitrogen AG, Basel, CH), supplemented with 1% non essential amino acids, 1% sodium pyruvate, 50 μg/ml gentamycin (Invitrogen AG) (DMEM). Cells were then incubated for 15 min at 37° C. and 120 rpm in DMEM with or without the specified concentrations of test compounds under investigation. After this pre-incubation, cells were incubated in DMEM containing [propyl-3H]-dihydro-FK506 (3H-tacrolimus, 1 μCi/ml, 34 nM) and with or without the specified concentrations of test compounds for 1 hour at 37° C. and 120 rpm. During this 1-hour incubation period, influx and efflux of the substrate, ^3H-tacrolimus, occur. After the 1-hour incubation period, assay was terminated by placing the assay plate on ice and washing the cells twice with ice-cold DMEM. Determination of cell associated ^3H-tacrolimus was performed by addition of Insta Gel and scintillation liquid to trypsinized cells followed by analysis on a scintillation counter (Packard TriCarb2000, Can berra Packard S.A.). The results are expressed as: % of control=100×[^3H-tacrolimus conc. with test compound]/[^3H-tacrolimus conc. with vehicle]

[2] = tested on: BB19 cells, human BCECs (brain capillary endothelial cells); assay: Cyclosporin uptake assay; format: cell-based; conditions: 0.1 μM test compound; 1 hour incubation; 0.1 µM
Protocol: as §1, §2, §3
The cyclosporin uptake assay was performed similarly as described above for tacrolimus uptake assay except that ^3H-cyclosporin was used in place of ^3H-tacrolimus.

ZDF rats [3] = assay: Oral glucose tolerance test (OGTT) in ZDF rats after the 4 week study; format: in vivo; conditions: glucose 2 g/Kg PO; compound 2 100 mg/kg, compound 3 50 mg/kg i.p.
Protocol: Following the 4 week study described in Example 26 above, the animals were fasted for 12 hours and on day-29, pre-drug blood samples are collected and glucose level and insulin level are measured. The animals are treated intraperitoneally (i.p.) with the following compounds:
Thirty (30) minutes after the treatment, pre-glucose blood samples are collected and the animals are then dosed with glucose (2 g/Kg, PO). Tail vein blood samples are collected at 30, 60, 90 and 120 minutes. Glucose levela and insulin leveal are measured. FIG. 31 show the plasma glucose level measured during OGTT. […] FIG. 32 show the plasma insulin level measured during OGTT. Phosphonated pyrone analogs raise insulin output in response to OGTT.

[4] = tested on: rats treated with tacrolimus; assay: Blood glucose in rats co-administered with tacrolimus; format: in vivo; conditions: tacrolimus 0.5 mg/kg i.p. day 1-25; Compound 2 114 mg/kg i.p. day 11-25
male ZDF rats = assay: 4 week study in ZDF rats (compound 2, compound 3); format: in vivo
Source text: Seven week old male ZDF rats are used for the study.
Experimental Design: This study is a 4 week study Using 32 7-week old male ZDF rats, divided into 4 treatment arms (8 rats/arm).

ZDF rats [5] = assay: Pancreas histopathology, insulin staining and TUNEL in ZDF rats; format: in vivo
Source text: Pancreas samples from Example 26 are stored in 10% NBF and used in this study. All tissue samples were processed through graded alcohols, cleared in xylene and infiltrated and embedded into paraffin. For the pancreas four 4 micron sections were cut, one was stained with Hematoxylin and Eosin for histopathology, two were immunohistochemically stained with an antibody to insulin to determine beta cell mass and one was stained for apoptosis with the tunel technique.
The insulin staining procedure was performed as follows: Endogenous peroxidase activity was inhibited by incubation in 3% hydrogen peroxide. Non-specific staining was blocked with DAKO Protein Block Serum-Free (Dako, Carpinteria, Calif.). Insulin positive cells were immunohistochemically stained with a polyclonal guinea pig anti-swine insulin antibody at room temperature for 30 minutes (Dako, Carpinteria, Calif.). After incubation with primary antibody, the tissue sections were sequentially incubated with Envision+ HRP Rabbit (Dako, Carpinteria, Calif.). Staining was developed with Liquid DAB+ (Dako, Carpinteria, Calif.) and counterstained with hematoxylin.
Pancreas samples were stained for apoptosis as follows: 4 micron sections were cut and stained for TUNEL utilizing the following kit In Situ Cell Death Detection Kit, AP (Roche Applied Science, catalog 11 684 809 910).

[6] = tested on: rats treated with tacrolimus; assay: Renal pathology in rats co-administered with tacrolimus; format: in vivo; conditions: tacrolimus 0.5 mg/kg with vehicle or with Compound 2 at 11, 28 and 114 mg/kg, 25 days
Protocol: Tissue is removed from the kidney of rats treated with tacrolimus (Prograf®) at 0.5 mg/kg and inert vehicle, and from rats treated with tacrolimus (Prograf®) at 0.5 mg/kg and quercetin-3′-O-methylphosphonate (Compound 2) at 11 mg/kg, 28 mg/kg, and at 114 mg/kg for 25 days. […] The tissue from rats treated with Compound 2 and tacrolimus show no vacuoles.

[7] = Stability in water at about pH 8; conditions: water at about pH 8, 24 hours, ambient temperature
Protocol: Quercetin-3′-O-phosphate is dissolved in water at about pH 8.
Fisetin-3′-O-phosphate is dissolved in water at about pH 8.
Quercetin-3′-O-methylphosphonate (Compound 2) is dissolved in water at about pH 8.

[8] = following four weeks of daily treatment

O=c1c(O)c(-c2ccc(O)c(OCP(=O)(O)O)c2)oc2cc(O)cc(O)c12 [Compound 2, Quercetin-3′-O-methylphosphonic acid]
activity at 0.1 µM [1]: 51%
cell associated ^3H-cyclosporin uptake, % of control [2]: 54 % of control
plasma glucose level during OGTT (ZDF rats [3]): protect against hyperglycemia
blood glucose level (tacrolimus induced hyperglycemia) [4]: attenuate tacrolimus induced hyperglycemia
plasma insulin levels (male ZDF rats; 4 weeks daily i.p., compared to vehicle treated animals): require lower insulin levels to maintain nomal glucose levels
plasma glucose levels (male ZDF rats; 4 weeks daily i.p., compound 2 100 mg/kg, compound 3 100 mg/kg day 4 and 5, 50 mg/kg day 6-28, rosiglitazone 6 mg/kg): maintains steady glucose levels
glycated hemoglobin levels (% HbA1c) at termination (male ZDF rats; compared to vehicle treated animals): lower glycated hemoglobin levels
triglycerides (male ZDF rats; day 14 and day 21, over vehicle controls): marked decreases in triglycerides
islet cell apoptosis (ZDF rats [5]; TUNEL, following four weeks of daily treatment): decreases in islet cell apoptosis
decrease in islet vacuolar degeneration (inhibition) (ZDF rats [5]; [8]): 43%
decrease in pancreatic inflammation (inhibition) (ZDF rats [5]; [8]): 60%
ratio of insulin positive islet cells to pancreas cells (ZDF rats [5]; insulin immunohistochemistry): significantly increased
vacuolation of kidney tissue [6]: no vacuoles
degradation seen by NMR [7]: no degradation
